# Reference: ChEMBL document CHEMBL4334474, “Friomaramide, a Highly Modified Linear Hexapeptide from an Antarctic Sponge, Inhibits Plasmodium falciparum Liver-Stage Development” (J Nat Prod, 2019)
# The source made the active and inactive calls. No cut-off for these calls is given here. Non-standard residues stand in square brackets, D forms with d. Residues, ends and D or L forms follow the SMILES beside them. *: point of attachment. NMeI = CC[C@H](C)[C@H](NC)C(=O)O; dNMeF = CN[C@H](Cc1ccccc1)C(=O)O; X1 = C(=C/c1c[nH]c2ccccc12)/N*; NMeV = CN[C@H](C(=O)O)C(C)C; NMeA = CN[C@@H](C)C(=O)O
# Tests used:
# Plasmodium falciparum [1] = assay: Antimalarial activity against Plasmodium falciparum liver stage form infected in human primary hepatocytes assessed as reduction in viability at 19.3 uM incubated for 3 days followed by compound wash and measured on day 6 relative to control; assay type: functional
# Hepatocyte [2] = assay: Cytotoxicity against human primary hepatocytes at 19.3 uM; assay type: cell-based
# Plasmodium falciparum [3] = assay: Antimalarial activity against Plasmodium falciparum liver stage form infected in human primary hepatocytes assessed as reduction in viability at 6.1 uM incubated for 3 days followed by compound wash and measured on day 6 relative to control; assay type: functional
# Hepatocyte [4] = assay: Cytotoxicity against human primary hepatocytes at 6.1 uM; assay type: cell-based
# Plasmodium falciparum [5] = assay: Antimalarial activity against Plasmodium falciparum liver stage form infected in human primary hepatocytes assessed as reduction in viability at 17.6 uM incubated for 3 days followed by compound wash and measured on day 6; assay type: functional, organism-based
# Hepatocyte [6] = assay: Cytotoxicity against human primary hepatocytes at 17.6 uM; assay type: cell-based
smiles,measurement,setting,value
COc1cc(NC(C)CCCN)c2ncccc2c1 (stereo unspecified) [PRIMAQUINE],inhibition at 19.3 µM,Plasmodium falciparum [1],> 90%
same,Activity,Hepatocyte [2],Non-Toxic
CC[C@H](C)[C@@H](C(=O)N/C=C\c1c[nH]c2ccccc12)N(C)C(=O)[C@H]([C@@H](C)CC)N(C)C(=O)[C@H](C)N(C)C(=O)[C@H](C(C)C)N(C)C(=O)[C@@H](Cc1ccccc1)N(C)C(C)=O (Ac-[dNMeF][NMeV][NMeA][NMeI][NMeI]-X1),inhibition at 6.1 µM,Plasmodium falciparum [3],90 to 92%
same,Activity,Hepatocyte [4],Non-Toxic
C[C@H]1[C@@H](O)O[C@@H]2O[C@@]3(C)CC[C@H]4[C@H](C)CC[C@@H]1[C@@]24OO3 [ARTENIMOL],inhibition,Plasmodium falciparum [5],inactive
same,Activity,Hepatocyte [6],Non-Toxic
